# In US20110034385A1, “Compositions Useful for the Treatment of Diabetes and Other Chronic Disorder” (NATIONAL INSTITUTE OF IMMUNOLOGY, priority 2008, published 2011):
# Experiments:
# [1] = test system: ovariectomized (OVX) rats; settings: rat, in vivo
# Procedure: 44 female Sprague-Dawley rats (Charles River Laboratory, Wilmington, Mass.), approximately 90 days of age with an average body weight of 230 g were grouped into four groups at the beginning of the study. All rats were anesthetized with an intraperitoneal injection of ketamine hydrochloride and xylazine at doses of 50 and 10 mg/kg body weight (BW), respectively. Bilateral ovariectomies were performed in three groups from a dorsal approach. All rats were housed individually at 25° C. with a 12 h light/12 h dark cycle. The food consumption of ovariectomized (OVX) rats was restricted to that of the control rats to minimize increase in the body weight associated with ovariectomy. All rats were treated for 8 weeks with vehicle or Human/salmon CT (Sigma) either intermittently by subcutaneous injection or continuously by Alzet osmotic minipumps (Model 2ML4; Alza Corp., Palo Alto, Calif.) containing 200 μl of either CT (4 μg/kg) or SCA (Supramolecular calcitonin assembly) (2 mg/ml) in 2% mannitol, designed to deliver the solutions at a constant rate of 2.5 μl/h for 28 days. The intermittent treatments started a day after surgery. The minipumps for continuous CT or Calcitonin SCA or vehicle treatments were implanted at the time of surgery (day 0) and replaced after 3 weeks in case of continuous CT and vehicle treatment. […] For subcutaneous injections of CT, the hormone was dissolved in a vehicle of 2% mannitol.
# Half of the OVX rats from this group were injected subcutaneously on alternate days with 2% mannitol as a vehicle. The remaining OVX rats in this group were implanted subcutaneously with Alzet osmotic minipumps for continuous infusion of vehicle.
# Each OVX rat of one group was injected subcutaneously on alternate days with salmon CT at a dose of 16 U/kg BW (4 μg/kg b wt), and the other was implanted subcutaneously with an Alzet osmotic minipump for continuous infusion of human CT. The daily dose delivered to each rat by the minipump was 8 U/kg BW (2 μg/kg BW), which was equivalent to the dose given to the preceding group through subcutaneous injections on alternate days (16 U/kg).
# Serum samples were stored at −80° C. until analyzed for their CT concentration by immunoassay methods with a commercially available kit (Bio-Merica). […] Calcitonin in serum was measured by an immunoassay kit.
# Data are expressed as the mean±standard deviation (SD) for each group. Statistical differences were evaluated by analysis of variance. P values<0.05 were considered to be significant.
# [2] = test system: rats with kaolin/carrageenan (KC) arthritis; assay: Hot plate test in kaolin/carrageenan arthritis; type: in vivo, rat
# Procedure: Male wistar rats, weighing 180-220 g were selected and fed ad libitum. After four days of acclimatization, the rats were divided into five groups. Group I—control, Group II—Ibuprofen (10 mg/kg b.wt.), Group III—Ibuprofen (50 mg/kg b.wt.), Group IV—Ibuprofen coupled to transthyretin (TTR) or GNNQQNY injected intraperitoneally and Group V—carrageenin control. Groups II-V was anesthetized with halothane and KC arthritis was induced by an intra-articular injection of a mixture of 3% kaolin and 3% carrageenan (0.1 ml in sterile saline) into the synovial cavity of right knee joint. The joint was then manipulated by rapid flexion and extension movements for 1 min. Half an hour after injection of kaolin/carrageenan, the animals were treated as indicated above, with group II and II receiving daily injections of Ibuprofen orally. In the hot plate test method, rats from each group were placed on an analgesiometer, at a temperature of 55° C., and the latency in licking their paw was determined with a stop watch, one hour after treatment on day one (FIG. 32a), and thereafter everyday for four days (FIG. 32b). A 90-s cut-off time was imposed to prevent tissue damage.
# [3] = test system: MCF 7 cells; assay: MTT cell proliferation assay; type: cell-based; settings: 3 days after treatment
# Procedure: Cells were plated in 24-well plates with 10,000 cells/well in regular DMEM media containing 10% FBS. All treatments were done in triplicates. Growth was measured 3 days after treatment. Growth was assayed by the MTT assay. A total of 50 μl of 5 mg/ml MTT solution in PBS was added to each well. After incubation for 4 h at 37° C., formazan crystals were lysed with 500 μl of solubilization solution (20% SDS, 50% DMSO). Absorbance was measured with a plate reader at 570 nm using a 670-nm differential filter.
# [4] = test system: Male wistar rats; assay: Hyperglycemic clamp after treatment with SIA II; type: in vivo, rat; settings: one week, one month and three month
# Procedure: Male wistar rats were anesthetized (Isoflurane 2%) and a carotid and jugular catheter installed to allow blood withdrawal and glucose injections (20% glucose solution) to clamp blood glucose level at 600 mg/dL. Following a 12 hours fasting period, glucose was infused in all groups to make them hyperglycemic. This was followed by blood withdrawal at indicated time intervals, for blood glucose measurements and the rate of glucose infusion to retain them hyperglycemic were calculated. This procedure was repeated after one and three months of SIA II administration (FIG. 16 a-c).
# [5] = test system: STZ-induced diabetic rats; assay: Clinical parameters for the evaluation of toxicity of SIA II; type: in vivo, rat; settings: end of three month study
# Description: Serum isolated from blood samples collected at the end of the three month study and subjected to various tests indicated in the Table. Results are mean±s.d. of three different experiments having n=4 animals in each group.
# [6] = test system: fat-fed/streptozotocin-diabetic rats; assay: Type II diabetes model, fat-fed/streptozotocin-diabetic rats; type: in vivo, rat
# Procedure: Male Wistar rats, 7 weeks of age, and weighing approximately 200 g, were used for all studies. […] After 2 weeks on either diet, animals (with the exception of non-injected controls) after an overnight fast were injected with STZ (50 mg/kg) into the tail vein via a temporary indwelling 24-gauge catheter. Animals had free access to food and water after the STZ injection, and both STZ-injected and non-injected animals were continued on their original diets (chow or fat) for the duration of the study.
# [7] = test system: STZ-induced diabetic rats; assay: Clinical parameters for the evaluation of toxicity of SIA II; type: in vivo, rat
# [8] = Serum insulin quantification by ELISA; settings: in 30 min
# Procedure: Serum was isolated from the blood samples collected and stored at −20° C. till further analysis.
# [9] = test system: STZ-induced diabetic rats; assay: Blood glucose control in streptozotocin-induced diabetic rats; type: in vivo, rat
# Procedure: Nine weeks old Male Wistar rats (Rattus norvegicus albinus, Rodentia mammalia) weighing 210±10 g were used. Rats were housed in commercially available polypropylene cages and maintained under controlled temperature conditions on a 12 h light-dark cycle and allowed to access food and water ad libitum.
# Male Wistar Rats weighing 250-300 g were divided into four groups and blood glucose estimation was done using Roche Accu Check glucose strips. Rats were kept on fasting for 48 hours. 50 mg/kg b.wt of Streptozotocin prepared freshly in citrate buffer (pH 4.5) was administered intraperitoneally to 10-20 rats. Food was provided immediately and blood glucose levels were checked after three days. The animals were grouped according to their blood glucose level (group I: 250-350 mg/dl, group II: 350-450 mg/dl and group III: >450 mg/dL).
# A group of 5 normal rats injected 100 μl of PBS, served as the non-diabetic control. Body weight and blood glucose levels, both pre-prandial after 8-10 hr fasting and post-prandial were checked initially daily and then with decreasing frequency.
# [10] = test system: STZ treated rats; assay: Intraperitoneal glucose tolerance test (IPGTT); type: in vivo, rat
# Procedure: The STZ treated (n=12) and normal rats (n=4) were kept on fasting for 12 hrs. Blood glucose levels were monitored as described above. For glucose tolerance test was done. […] Blood glucose levels were monitored at 0, 30, 90, 150, 270 and 330 min after treatment. Serum was isolated for various time points and a graph was plotted between blood glucose level and time. FIG. 12 provides blood glucose profile of Intraperitoneal Glucose Tolerance Test (IPGTT).
# [11] = test system: insulin signaling cascade (PI3K, Akt, GSK3β, ERK1/2) in rat adipocytes; assay: Western blot of insulin signaling cascade in cultured adipocytes; type: cell-based; settings: compared to control
# Procedure: Rat adipocytes were isolated and cultured according to the method described by Björntorp et al. (Björntorp, P., Karlsson, M., Pettersson, P. & Sypniewska, G. Differentiation and function of rat adipocyte precursor cells in primary culture. J. Lipid Res. 21, 714-723 (1987)). Male Wistar rats fed freely were sacrificed and epididymal fat tissue was dissected and collected in reagent A (HBSS, 100 U/ml penicillin, 100 μg/ml streptomycin and […] gentamycin). The tissue was washed properly in HBSS. Following this the tissue was cut and minced finely and transferred to a falcon, centrifuged at 200 g for 2 min. The layer of transparent oil was removed and the adipocyte cell layer (thick and dense) was added to three times the volume of reagent B (reagent A containing 0.1% BSA and 1 mg/ml Collagenase) in a flask. The flask was incubated at 37° C. for 60 min with continuous slow shaking. The reaction was stopped by addition of DMEM complete media (with HEPES 15 mM, glc, 0.1% BSA, 50 nM adenosine and 1% fetal bovine serum) three times the volume and incubated at room temperature for 5 min. […]
# After incubation, the cells were collected in a falcon tube and centrifuged at 200 g for 10 min. […] Adipocytes treated with (a) PBS, insulin, SIA-II, insulin released from SIA-II, (b) serum as indicated, and analysed for insulin signaling.
# [12] = insulin: single dose of 4 IU/kg daily, SIA: single injection 200 μg
compound,measurement,setting,value
CC(C)C[C@H](NC(=O)[C@H](CCCCN)NC(=O)CNC(=O)[C@H](CC(C)C)NC(=O)[C@@H](NC(=O)[C@@H]1CSSC[C@H](N)C(=O)N[C@@H](CO)C(=O)N[C@@H](CC(N)=O)C(=O)N[C@@H](CC(C)C)C(=O)N[C@@H](CO)C(=O)N[C@@H]([C@@H](C)O)C(=O)N1)C(C)C)C(=O)N[C@@H](CO)C(=O)N[C@@H](CCC(N)=O)C(=O)N[C@@H](CCC(=O)O)C(=O)N[C@@H](CC(C)C)C(=O)N[C@@H](Cc1c[nH]cn1)C(=O)N[C@@H](CCCCN)C(=O)N[C@@H](CC(C)C)C(=O)N[C@@H](CCC(N)=O)C(=O)N[C@H](C(=O)N[C@@H](Cc1ccc(O)cc1)C(=O)N1CCC[C@H]1C(=O)N[C@@H](CCCNC(=N)N)C(=O)N[C@H](C(=O)N[C@@H](CC(N)=O)C(=O)N[C@H](C(=O)NCC(=O)N[C@@H](CO)C(=O)NCC(=O)N[C@H](C(=O)N1CCC[C@H]1C(N)=O)[C@@H](C)O)[C@@H](C)O)[C@@H](C)O)[C@@H](C)O [SCA],Calcitonin (serum),[1],19.1 ± 4.2
same,antibody against salmon calcitonin,[1],negligible
same,serum levels of calcitonin,[1],0.019 ng/mL
same,time depot keeps on releasing calcitonin,[1],6-8 weeks
same,time serum calcitonin maintained at a higher level,[1],up to 60 days
CC(C)Cc1ccc(C(C)C(=O)O)cc1 (stereo not drawn) [Ibuprofen],latency in licking paw (heat endured),[2]; 10 mg/kg b.wt orally,up to 12 sec
same,latency in licking paw (heat endured),[2]; 50 mg/kg b.wt orally,≤ 17 s
"IGF 1: Insulin like growth factor I, positive control for proliferation of MCF 7 cells",proliferation of MCF 7 cells,[3],mitogenic
"Insulin: free, non-supramolecularly organized insulin; bovine insulin 4 U/kg intraperitoneally",rate of glucose infused for maintaining hyperglycemic state,[4],decreases over time
same,Alkaline Phosphatase,[5]; Single daily Insulin Injection,777.8 ± 89.4 U/L
same,Bilirubin (Direct),[5]; Single daily Insulin Injection,0.36 ± 0.08 mg/dL
same,Bilirubin (Total),[5]; Single daily Insulin Injection,0.40 ± 0.08 mg/dL
same,Chloride,[5]; Single daily Insulin Injection,165 ± 23 mEq/L
same,Phosphorous,[5]; Single daily Insulin Injection,6.5 ± 1.3 mEq/L
same,SGOT,[5]; Single daily Insulin Injection,355 ± 83 U/L
same,SGPT,[5]; Single daily Insulin Injection,86 ± 36 U/L
same,Serum A/G ratio,[5]; Single daily Insulin Injection,0.595
same,Serum Albumin,[5]; Single daily Insulin Injection,2.5 ± 0.21 g/dL
same,Serum Creatinine,[5]; Single daily Insulin Injection,1.01 ± 0.30 mg/dL
same,Serum Globulin,[5]; Single daily Insulin Injection,4.2 ± 0.18 g/dL
same,Serum total proteins,[5]; Single daily Insulin Injection,6.70 ± 0.21 g/dL
same,Sodium,[5]; Single daily Insulin Injection,200 ± 26 mEq/L
same,Urea,[5]; Single daily Insulin Injection,58.3 ± 9.2 mg/dL
same,Uric Acid,[5]; Single daily Insulin Injection,3.0 ± 0.81
same,Adipose Tissue,[5]; Twice daily Insulin Injection,Decreased
same,Alkaline Phosphatase,[5]; Twice daily Insulin Injection,489 ± 65 U/L
same,Bilirubin (Direct),[5]; Twice daily Insulin Injection,0.25 ± 0.06 mg/dL
same,Bilirubin (Total),[5]; Twice daily Insulin Injection,0.35 ± 0.1 mg/dL
same,Chloride,[5]; Twice daily Insulin Injection,119 ± 26 mEq/L
same,Phosphorous,[5]; Twice daily Insulin Injection,6.2 ± 0.95 mEq/L
same,SGOT,[5]; Twice daily Insulin Injection,300 ± 56 U/L
same,SGPT,[5]; Twice daily Insulin Injection,85 ± 15 U/L
same,Serum A/G ratio,[5]; Twice daily Insulin Injection,0.955
same,Serum Albumin,[5]; Twice daily Insulin Injection,3.2 ± 0.19 g/dL
same,Serum Creatinine,[5]; Twice daily Insulin Injection,0.88 ± 0.21 mg/dL
same,Serum Globulin,[5]; Twice daily Insulin Injection,3.35 ± 0.15 g/dL
same,Serum total proteins,[5]; Twice daily Insulin Injection,5.55 ± 0.25 g/dL
same,Sodium,[5]; Twice daily Insulin Injection,198 ± 45.5 mEq/L
same,Urea,[5]; Twice daily Insulin Injection,60.1 ± 12.36 mg/dL
same,Uric Acid,[5]; Twice daily Insulin Injection,3.1 ± 0.56
same,B W,[6]; 1 week,261
same,BGL,[6]; 1 week,420 mg/dL
same,FFA,[6]; 1 week,1.9 ± 0.08 mmol/L
same,Rat Insulin,[6]; 1 week,37.09 ± 4.7 μU/ml
same,TG,[6]; 1 week,0.77 ± 0.05 mmol/L
same,B W,[6]; 2 week,263
same,BGL,[6]; 2 week,401 mg/dL
same,FFA,[6]; 2 week,2.1 ± 0.08 mmol/L
same,Rat Insulin,[6]; 2 week,37.09 ± 4.7 μU/ml
same,TG,[6]; 2 week,0.75 ± 0.05 mmol/L
same,B W,[6]; 3 week,269
same,BGL,[6]; 3 week,390 mg/dL
same,FFA,[6]; 3 week,1.8 ± 0.08 mmol/L
same,Rat Insulin,[6]; 3 week,37.09 ± 4.7 μU/ml
same,TG,[6]; 3 week,0.73 ± 0.05 mmol/L
same,BGL,[6]; 4 week,396 mg/dL
same,FFA,[6]; 4 week,2.1 ± 0.08 mmol/L
same,Rat Insulin,[6]; 4 week,37.09 ± 4.7 μU/ml
same,TG,[6]; 4 week,0.76 ± 0.05 mmol/L
same,increase of TAGs and FFA levels in serum,[6]; serum,up to 1.5 fold
same,Adipose Tissue,"[7]; Single daily Insulin Injection, end of three month study",Decreased
same,cataract formation,[7]; diabetic rats,Development of cataract
same,proliferation of MCF 7 cells,[3],does not cause proliferation of cells
same,serum bovine insulin in IPGTT,[8],~0.9 ng/mL
same,blood glucose levels,[9]; insulin intraperitoneally everyday,300 ± 100 mg/dL
same,fasting blood glucose,[9]; [12],300 to 400 mg/dL
same,non-fasting blood glucose,[9]; [12],350 to 450 mg/dL
same,duration of action,[9]; standard insulin injection,6 to 10 h
same,time for elevated blood glucose to return to pre challenged levels,[10]; after glucose infusion 3 g/kg IP,≤ 1.5 h
same,onset of effect in IPGTT,[10]; severe hyperglycemia,≤ 30 min
same,activation of ERK 1/2,[11],significant activation
same,phosphorylation of GSK3β,[11],increased several fold
